The results in this text go back to paper PMC10072326, “Promising anticancer agents based on 8-hydroxyquinoline hydrazone copper(II) complexes” (Frontiers in Chemistry, 2023).

The nature of data set [1]: Thermodynamic solubility at pH 7.4. In kind it is physicochemical. To be noted: Cu(II) complexes; pH 7.40; 20 mM HEPES; 25.0°C. On the procedure:
Thermodynamic solubility (S) was measured for the new ligands, L^7 and L^8, since data for the rest of the series was previously reported (9), and for selected Cu(II) complexes: 1, 5 and 6. Solubility was measured for the saturated solutions in water at pH 7.40 in 20 mM HEPES at 25.0 ± 0.1 °C. The concentration was determined by UV-Vis spectrophotometry using the stock solutions of the compounds with known concentrations dissolved in 100% DMSO, 50% and 25% (v/v) DMSO/buffered aqueous solutions for the calibration.

Data set [2] has as its system A-375 cells. Kind of data set: Sulforhodamine B (SRB) cell viability assay. To be noted: 72 h. It is filed as cell-based. As to the method: (§1) Copper compounds were tested, along with the free ligands and cisplatin as the positive control, for their cytotoxicity on both melanoma (A-375) and lung adenocarcinoma (A-549) cell lines in the concentration range 0.78–50 μM. Following 72 h of incubation, cell viability was measured via sulforhodamine B (SRB) assay (Supplementary Figure S25).
(§2) A-375 cells (ATCC, CRL-3222) were grown in Dulbecco’s Modified Eagle Medium with high glucose (Gibco #11965118) and A-549 (ATCC, CCL-185) cells were grown in Dulbecco’s Modified Eagle Medium F-12 (Gibco #11320033), supplemented with 10% FBS (Gibco, #10500064) and Penicillin-Streptomycin (10,000 U/mL, Gibco, #15140122). Cells were incubated at 37 °C, 5% CO2 incubator and subcultured every 3 days.
(§3) All the tested complexes were dissolved in DMSO (10 mM stock solution), and aliquots were stored at -20 °C, thawed on the experiment day and used only once. For SRB cell viability assay, A-375 and A-549 cells were seeded on 96-well plates (4×10^3 cells/well) and treated with serial dilutions of indicated compounds (with a concentration range of 0-50 μM, 72 h). Trichloroacetic acid (TCA) was added to wells for fixation at a final concentration of 10%, for 1 h at 4 °C. Each well was washed five times with ddH2O, dried, and incubated with 0.4% (w/v) SRB dye (50 µL/well) for 30 min at room temperature. The wells were washed with 1% acetic acid (v/v) five times, and 150 µL of 10 mM Tris solution was added to dissolve the stain. Colorimetric measurements were taken at λ = 564 nm. Viability percentage was calculated as follows: % Cell Viability = [100 × (sample Abs.-blank) / (non-treated control Abs.-blank)].

For data set [3], the system named is A-549 cells. The data set can be described thus: Sulforhodamine B (SRB) cell viability assay. It is filed as cell-based. The settings on record: 72 h. On the procedure: as §1, §2, §3
The subject of the next data set is S. aureus ATCC 25928. Kind of data set: MIC determination. It is filed as cell-based, Staphylococcus aureus. To be noted: S. aureus ATCC 25928 (sensitive); 18 h. On the procedure: (§4) Wild-type Escherichia coli K-12 AG100 strain [argE3 thi-1 rpsL xyl mtl Δ(gal-uvrB) supE44] expressing the AcrAB TolC efflux pump at its basal level and Klebsiella pneumoniae ATCC 49619 Gram-negative strains were studied in the experiments. Sensitive (ATCC 25928) and the methicillin-resistant (MRSA 272123) subspecies of Staphylococcus aureus were used as Gram-positive strains in the assays.
(§5) Minimum inhibitory concentration (MIC) values of selected compounds were determined in 96-well plates based on the Clinical and Laboratory Standard Institute guidelines (CLSI guidelines). The stock solutions of the compounds were dissolved in DMSO using 1.3 μL of Mueller Hinton Broth, and then two-fold serial dilutions were performed. The starting concentration of the compounds was 100 μM. Then 10^‒4 dilution of an overnight bacterial culture in 100 μL of medium was added to each well, except for the medium control wells.

In a further data set the test system is S. aureus MRSA 272123. The data set can be described thus: MIC determination. It is filed as cell-based, Staphylococcus aureus. To be noted: 18 h. On the procedure:
as §4, §5

For data set [4], the system named is Escherichia coli K-12 AG100. Kind of data set: MIC determination. In kind it is cell-based. The settings on record: E. coli; 18 h. As to the method: as §4, §5
Data set [5] has as its system Klebsiella pneumoniae ATCC 49619. The data set can be described thus: MIC determination. In kind it is cell-based. The settings on record: K. pneumoniae; 18 h. As to the method:
as §4, §5

Data set [6] has as its system A-549 cells. Kind of data set: ROS activation via dihydroethidium staining, flow cytometry. It is filed as cell-based. The text has this:
Since reactive oxygen species appeared to be involved in the nicking activity of the complexes (Supplementary Figure S24), we investigated whether there was an increase in ROS formation in cells upon drug treatment. Dihydroethidium (DHE) is a reduced form of ethidium, after oxidation with superoxide (ROS), it is converted into 2-hydroxy ethidium, which is a chemical that emits red fluorescence and intercalates DNA. […] Similar results were obtained using A-549 cells, but with much milder induction of ROS except for 8, which remained high (Supplementary Figure S26).
(§6) 5 × 10^4 number of A-375 and A-549 cells were seeded on 12-well plates, and the next day cells were treated with either copper complexes (calculated IC70 values) or cisplatin (15 μM). Following 48 h of treatment, cells were trypsinized, centrifuged and resuspended in PBS solution supplemented with 1% fetal bovine serum (FBS) (10^6 cells/mL).
Oxidative stress levels were assessed by Muse Oxidative Stress Kit (Luminex, MCH100111) using the same protocol as previously described (21).
Background: A flow cytometer gives signals particle by particle.

Data set [7] concerns A-375 cells. Kind of data set: γH2AX staining for DNA double-strand breaks. It is filed as cell-based. On the procedure:
Indeed, we examined whether DNA nicks induced by the complexes on pure plasmid DNA would reflect in cell culture as increased DNA break formation. To test this, A-375 cells were stained using γH2AX, which is a common marker for DSBs (Figure 7B). […] For complex 1 the opposite effect was observed and despite its lower ability to induce ROS formation, the DSB were the highest among the group.
as §6
The Muse ɣH2A.X Activation Dual Detection Kit (Luminex, MCH200101) protocols were followed with minor changes. 1 × 10^5 cells were mixed with ice-cold 1X Fixation Buffer at the same volume for 5 min. Cells were centrifuged (600 g, 5 min), and the pellet was suspended with 100 μL of ice-cold 1X Permeabilization Buffer (10 min, on ice), and centrifuged again. The cell pellet was resuspended with 50 μL of antibody mixture of (20X) Anti-phospho-Histone H2A.X (Ser139), Alexa Fluor 555 and (20X) Anti-H2A.X, PECy5 antibodies. Following 30 min of antibody staining, cells were centrifuged and resuspended with 1X Assay Buffer. DNA breaks were analysed with Muse Cell Analyzer (Merck Millipore).

Data set [8] has as its system A-375 cells. The data set can be described thus: Cytotoxicity with ROS scavenger NAC (SRB). To be noted: 10 mM NAC pre-treatment 2 h, co-treatment 72 h. In kind it is cell-based. The text has this: (§7) Additionally, to assess whether the ROS induction contributed to the cytotoxicity triggered by these complexes, we used a ROS scavenger, N-acetyl-cysteine (NAC), in combination with 1, 3, 5 or 8. […] Indeed, it is also possible that the cytotoxicity induced by 5 is not by ROS, despite the induction observed in Figure 7A.
(§8) Figure S27- Protective mechanism of NAC against Cu(II) complexes. Addition of NAC can protect cells from the cytotoxic effects of the Cu(II) complexes A-375 (A) and A-549 (B) cells were pre-treated with 10 mM of ROS scavenger N-acetylcysteine (NAC) for 2 h, then co-treated with freshly prepared Cu(II) complexes (1, 3, 5 and 8) for 72 h. Cell viability was measured via SRB assay (2 biological replicates, each done in duplicate). The error bars represent standard error of the mean. Student t-test was used for statistical analysis, *p<0.05, **p<0.01

Data set [9] has as its system A-549 cells. The data set can be described thus: Cytotoxicity with ROS scavenger NAC (SRB). In kind it is cell-based. The settings on record: 10 mM NAC pre-treatment 2 h, co-treatment 72 h.
Text: as §7, §8

Data set [10] deals with A-375 cells. The data set can be described thus: Apoptosis by Annexin V/7-AAD and Caspase 3/7 flow cytometry. In kind it is cell-based. To be noted: 48 h, Annexin-V and caspase 3/7. As to the method:
To determine the mode of cell death, A-375 cells were incubated with the Cu complexes and cisplatin for 48 h and, induction of apoptosis was evaluated using both Annexin-V staining and activation of caspase 3/7 in response to drug treatment. While Annexin-V staining relies on the loss of plasma membrane asymmetry, caspases 3 and 7 are critical proteases, which are responsible for the cleavage of many cellular proteins. […] Similar results were obtained in A-549 cells (Supplementary Figure S28).
as §6
Annexin V & Dead Cell Kit (Luminex, MCH100105) protocols were followed for Annexin V activation. Briefly, 1 × 10^5 cells were stained with Annexin V and 7-AAD solution in a 1:1 ratio and incubated at room temperature for 20 min. The apoptotic cell population was evaluated with Muse Cell Analyzer (Merck Millipore).
Caspase-3/7 Kit (Luminex, MCH100108) protocols were followed for Caspase 3/7 staining. 2 × 10^5 cells were stained with 5 μL of Caspase 3/7 antibody (1:8 dilution in PBS) and incubated at room temperature for 30 min. Then, the cells were stained with 100 μL of 7-AAD antibody mixture (1:75 dilution with 1 × Assay Buffer) for 5 min. Caspase 3/7 and 7-AAD positivity were assessed with Muse Cell Analyzer (Merck Millipore).

Bounds are passed on as bounds.

What is called IC50 is the concentration that gives 50% inhibition. Usually MIC stands for the smallest concentration in the dilution series that meets the test's criterion for growth inhibition. The low end stands for inhibition by little substance, the high end for a need for much substance. Consider `[Cu+2].[O-]C(=NN=Cc1ccc2cccc([O-])c2n1)c1ccncc1` [Complex 8, [Cu(L^8)]3], for which the “thermodynamic solubility S 7.4” value in data set [1] came to 3.3 ± 0.3 µM. In addition, the concentration for half-maximal inhibition (IC50) was 2.8 ± 0.4 µM with A-375 cells [2] and 5.1 ± 0.2 µM in the data set with A-549 cells [3]. Further, the MIC (with S. aureus ATCC 25928; in the data set with S. aureus MRSA 272123; in [4]; in data set [5]) was more than 100 µM throughout. In addition, the “ROS induction, in words” value with A-549 cells [6] is “remained high”. Besides, the “DSB induction (γH2AX), in words” value with A-375 cells [7] is listed as “highest levels of DSB induction”. The “effect of NAC on cytotoxicity” value in the data set with A-375 cells [8] and with A-549 cells [9] was “significantly reduced” throughout. In addition, the “induction of apoptosis, in words” value in the data set with A-375 cells [10] is on record as “most effective drug among the complexes tested”.
